Test results from patent US9593362B2, “Fluorogenic glycosidase substrate and associated detection method” (ECOLE NORMALE SUPERIEURE DE LYON, priority 2012, dated 2017).

What was measured:
[1] = tested on: beta-galactosidase (EC 3.2.1.23; b-gal); assay: Enzymatic assay: incubation of the probe with beta-galactosidase, microplate fluorescence; format: biochemical
Experimental: (§1) Probe I.1 was evaluated by incubation with the target enzyme beta-galactosidase (EC 3.2.1.23; <<b-gal>>; commercial) in in vitro medium and in multi-well micro-plates designed for fluorescence readers.
(§2) The main assays were conducted at 25° C. in solutions buffered at pH 7.4, physiological pH). Assays at 37° C. would have required protection of the wells against early evaporation e.g. by covering with a film which would have caused a strong reduction in the sensitivity of fluorescence measurement. A temperature of 25° C. was therefore preferred.
In the invention when implementing the enzymatic assays, once the minimum concentration allowing triggering of crystal nucleation is reached, there is depositing of a solid fluorophore in a well of a multi-well plate.
(§3) The following enzymatic assays of probe I.1 were performed in a 96-well microplate in a microplate spectrofluorimeter of Mithras LB 940 type by BERTHOLD TECHNOLOGIES. The excitation wavelength was set at 355 and the detection wavelength at 510 nm, conforming to the spectral properties of dichloro-HPQ.

[2] = Negative control of the enzymatic assay: probe in buffered aqueous medium without enzyme (background fluorescence / hydrolytic robustness); format: physicochemical; conditions: probe 25 μM, no b-gal, pH 7.4, 25° C., excitation 355 / detection 510 nm
Experimental: as §1, §2, §3

[3] = tested on: cells of C17.2 type which express the target enzyme b-gal constitutively; assay: Incubation of the probe with C17.2 cells, microplate fluorescence; format: cell-based; conditions: probe 25 μM, culture plate without serum
Experimental: The experiment was conducted in a cell culture plate without serum, and the fluorescence signal was measured by the microplate spectrofluorimeter of Mithras LB 940 type by BERTHOLD TECHNOLOGIES.

[4] = tested on: cells expressing b-gal constitutively; assay: Fluorescence microscopy of cells incubated with the probe; format: cell-based; conditions: probe 25 μM, 48 hours, serum-free medium
Experimental: FIG. 4 is a microscope image of the fluorescence of cells expressing b-gal constitutively and which were incubated by probe I.1 at 25 μM for 48 hours in a serum-free medium.

[5] = cited from earlier work

| SMILES | trend in fluorescence signal with increasing probe concentration ([1]; b-gal fixed at 20 μM, three concentrations of probe) | dependence of the fluorescence signal on the concentration of target enzyme ([1]; probe fixed at 25 μM, three concentrations of b-gal) | trend in the fluorescence signal in the absence of enzyme (negative control) [2] | capacity to cross the cell membrane [3] | conversion by intracellular b-gal (fluorescence signal) [3] | fluorescent precipitate in cells (microscope image) [4] | solubility in aqueous/physiological media [5] |
| --- | --- | --- | --- | --- | --- | --- | --- |
| O=C(Oc1ccc(Cl)cc1-c1nc2ccc(Cl)cc2c(=O)[nH]1)N1CCCCC1CO[C@@H]1O[C@H](CO)[C@H](O)[C@H](O)[C@H]1O (stereo partly shown) [probe I.1] | Strong growth of the signal | independency of the signal | total absence of a fluorescence signal | cross the cell membrane | converted by the enzyme | highly fluorescent dichloro-HPQ is precipitated |  |
| O=c1[nH]c(-c2cc(Cl)ccc2O)nc2ccc(Cl)cc12 [dichloro-HPQ, 6-chloro-2-(5-chloro-2-hydroxyphenyl)-4(3H)-Quinazolinone] |  |  |  |  |  |  | fully insoluble |
